Results: patent US20050084490A1, “Boroproline compound combination therapy” (Point Therapeutics, Inc., priority 2002, published 2005)

Assays:
[1] = tested on: IL-1β, G-CSF and KC; test: ELISA of IL-1β, G-CSF and KC in serum and spleen extracts of B6 and IL-1 receptor-1 mutant mice; type: in vivo; conditions: 40 or 160 μg oral, 8 hours
Procedure: Normal B6 mice (+/+) and congenic B6.129S7-Illr1^tmllmx mice with a targeted mutation of the IL-1 receptor-1 (−/−) were orally administered 40 or 160 μg of PT-100 or saline as indicated on the abscissae. 8-hours after PT-100 administration, IL-1β, G-CSF and KC levels were determined by ELISA of serum and extracts of spleen. Cytokine and chemokine levels are indicated on the ordinate as pg/ml or ng/ml of serum, and as pg/mg or ng/mg of protein in each spleen extract as determined by BCA protein assays.

[2] = tested on: cytokine and chemokine genes; test: Cytokine and chemokine gene expression (Affymetrix GeneChips) in lymph nodes and WEHI 164 tumors; type: in vivo, mice; conditions: 5 μg twice daily
Procedure: (§1) Mice were inoculated with WEHI 164 cells, and starting 2 days later, administered (twice daily) a 5 μg dose of PT-100 or saline (control). RNA extracted from lymph nodes and tumors 2 hours after the first dose of PT-100 on day 4 after tumor inoculation was processed, labeled and hybridized to Affymetrix GeneChips according to the manufacturer's instructions. The log ratio of expression values (PT-100 treated:saline treatment) has been plotted on the ordinates for the cytokine and chemokine genes indicated on the abscissae. Zero values indicate that gene expression was either undetectable or unaffected by PT-100 treatment.
as §1, with “tumors 30 minutes or” for “tumors”, “ratios for” for “ratio of”, “have” for “has”, “cytokine” for “cytokine and chemokine”, “treatment. […]” for “treatment.”

[3] = tested on: WEHI 164 tumor cells; test: WEHI 164 tumor growth and rejection in euthymic and athymic BALB/c mice; type: in vivo; conditions: 5 μg dose; for tumor growth (tumor volume): day 2 until day 20 after tumor inoculation
Procedure: Normal euthymic BALB/c mice (+/+) or athymic BALB/c mice that are congenitally deficient in mature T lymphocytes (nu/nu) were inoculated with WEHI 164 tumor cells. The mice were administered a 5 μg dose of PT-100 or saline (control) from day 2 until day 20 after tumor inoculation and tumor volumes ([…]) were measured at the times indicated on the ordinate. Each treatment group contained 10 replicate mice. […] In euthymic mice, however, tumors were completely rejected by day 20 in 40 per cent of the mice treated with PT-100 whereas tumor rejection was not observed in PT-100 treated athymic mice. In the WEHI 164 tumor model, tumor rejection never occurred spontaneously in control mice. […] The data are consistent with a mechanism of action involving increased production of cytokines and chemokines in mice treated with PT-100 as described in Example 1.

[4] = tested on: Namalwa cells; test: NOD/SCID mouse model of Burkitt's Non-Hodgkin's Lymphoma; type: in vivo, NOD/SCID mice; conditions: Namalwa subcutaneous tumors; PT-100 5 μg twice daily day 2 to 20; antibody or normal human IgG 1.5 mg on days 3, 5 and 7
Procedure: Immunodeficient NOD/SCID mice were inoculated with Namalwa cells derived from a Burkitt's NHL. The human lymphoma cells proliferated in the immunodeficient mice to form solid subcutaneous tumors. Mice were administered 1.5 mg of normal human lgG or 1.5 mg of a human CD20-specific antibody (Rituxan) on each of days 3, 5 and 7 after tumor inoculation. Additional treatments with 5 μg PT-100 administered twice daily from day 2 until day 20 after tumor inoculation were given as indicated in the Figure Legend. The four treatment groups each contained 4 or 5 replicate mice. The data represent mean tumor volumes (±SE). Control treatment with normal human IgG had no effect on tumor growth as compared with saline treatment (data not shown). […] The data support the concept that when combined together, PT-100 and a tumor-specific antibody can have a greater growth inhibitory effect against a tumor than either treatment by itself.

[5] = tested on: IL-1β, G-CSF and KC; test: ELISA of IL-1β, G-CSF and KC in serum and spleen extracts of BALB/c mice; type: in vivo; conditions: 20 μg oral, 8 hours after administration
Procedure: BALB/c mice were orally administered 20 μg PT-100 or saline as indicated on the abscissae. Eight hours after PT-100 administration, IL-1β, G-CSF and KC levels were determined by ELISA (R&D Systems) of serum and extracts of spleens. Cytokine and chemokine levels are indicated on the ordinate as pg/ml or ng/ml of serum, and as pg/mg or ng/mg of protein in each spleen extract as determined by BCA protein assays (Pierce).

[6] = IL-1 receptor-1 mutant (−/−) mice

Compound	IL-1β levels in the spleen ([1]; IL-1 receptor-1 mutant (−/−) mice compared to normal B6 mice)	serum G-CSF levels [1, 6]	serum KC levels [1, 6]	splenic G-CSF levels [1, 6]	splenic KC levels [1, 6]	cytokine and chemokine gene expression in tumor and draining inguinal lymph nodes ([2]; WEHI 164 tumor mice, 2 hours after first dose on day 4 after tumor inoculation)	IL-1β mRNA levels in lymph nodes ([2]; oral, 30 minutes vs 2 hours after first dose on day 4, inguinal lymph nodes draining WEHI 164 tumors)	tumor growth (tumor volume) ([3]; athymic BALB/c (nu/nu) mice)	tumor rejection ([3]; athymic BALB/c mice, day 2 until day 20)	mice with tumors completely rejected by day 20 ([3]; euthymic BALB/c mice, day 2 until day 20)	tumor growth (tumor volume) ([3]; normal euthymic BALB/c (+/+) mice)	tumor growth (mean tumor volume) [4]	G-CSF levels in serum ([5]; serum)	IL-1β serum levels ([5]; serum)	KC levels in serum ([5]; serum)	G-CSF levels in spleen ([5]; spleen extract)	IL-1β levels in spleen tissue ([5]; spleen extract)	KC levels in spleen ([5]; spleen extract)
CC(C)[C@H](N)C(=O)N1CCC[C@H]1B(O)O [PT-100, Val-boroPro]	could still increase IL-1β levels in the spleen; but the magnitude of the response was greatly reduced	essentially unaffected	essentially unaffected	essentially unaffected	essentially unaffected	selective induction of cytokine and chemokine gene expression	increase in lymph nodes before those of other cytokines	significantly inhibited tumor growth	not observed	40 per cent of the mice	significantly inhibited tumor growth	significantly (p<0.05) inhibited tumor growth	increased in both spleen and serum	without increasing serum levels	increased in both spleen and serum	increased in both spleen and serum	increases IL-1β levels in spleen tissue	increased in both spleen and serum
Rituxan: human CD20-specific antibody (anti-CD20 mAb rituximab) [reference compound]												significantly (p<0.05) inhibited tumor growth						
